# From patent publication US20240067651A1 (Biohaven Therapeutics Ltd., priority 2019, published 2024)
# Experiments:
# [1] = system: Caco-2 monolayer; test: Caco-2 Permeability Assay; type: in vitro ADME, human; details: for Caco-2 Papp: Caco-2 monolayer
# Outline: (§1)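 Caco-2 monolayers cultured 21 days (TEER >600 […]); test article at 10 μM in HBSS/HEPES pH 7.4 transport medium, dosed apical or basolateral, ±Pgp inhibitor. Incubated 90 min at 37 °C; both compartments quantified by LC-MS/MS. Papp (A→B, B→A), efflux ratio and % recovery calculated.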
# [2] = Stability in Simulated Gastric Fluid (SGF); type: in vitro ADME; design: key: % parent compound remaining relative to 0-minute sample
# Outline: (§2)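 Percent parent compound remaining, by LC-MS/MS against the 0-minute sample, is reported after incubation at 2 μg/mL (final) in pepsin-containing SGF at pH 1.2 or pancreatin-containing SIF at pH 6.8. Incubations run at 37° C for up to 60 minutes.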
# [3] = Stability in Simulated Intestinal Fluid (SIF); type: in vitro ADME; design: key: % parent compound remaining relative to 0-minute sample
# Outline: as §2
# [4] = Plasma Stability; type: in vitro ADME, human
# Outline: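 Compounds incubated at 1 μM in fresh human plasma for 1 hour at 37° C, then protein-precipitated with acetonitrile/formic acid containing internal standard. Remaining parent measured by LC-MS/MS in triplicate, expressed as percent of control remaining.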
# [5] = Caco-2 Permeability Assay; type: in vitro ADME, human; details: human
# Outline: as §1
# [6] = % remaining after 1 h in simulated gastric fluid
# [7] = % remaining after 1 h in simulated intestinal fluid
# [8] = % remaining after 1 h in human plasma
# [9] = % @ 1 h (remaining) in simulated gastric fluid
# [10] = % @ 1 h (remaining) in simulated intestinal fluid
# [11] = % @ 1 h (remaining) in human plasma
# [12] = simulated gastric fluid, remaining at 1 h
# [13] = simulated intestinal fluid, remaining at 1 h
# [14] = bare number, unit or time not given, the 15th table Examples 204-207
# [15] = % remaining at 1 h in human plasma, the 15th table
# [16] = % remaining at 1 h in simulated gastric fluid
# [17] = % remaining at 1 h in simulated intestinal fluid
# [18] = % remaining at 1 h in human plasma
# [19] = Caco-2, pH 7.4, Caco-2 monolayer
molecule,measurement,setting,value
"{4-oxo-1-[2-(propan-2-yloxy)ethyl]-2-sulfanylidene-1H,2H,3H,4H,5H-pyrrolo[3,2-d]pyrimidin-5-yl}methyl 2-{[(tert-butoxy)carbonyl](methyl)amino}acetate [Example 395]",Caco-2 Papp,[1],14.4 ×10⁻⁶ cm/s
same,SGF,[2]; [6],97% remaining
same,SIF,[3]; [7],23% remaining
same,human Plasma stability,[4]; [8],1% remaining
"CCCCN(C)C(=O)OCSc1nc(=O)c2c(ccn2COC(=O)N(C)CCCC)n1CCOC(C)C [Example 162, {2-[{{[butyl(methyl)carba-moyl]oxy}methyl)sulfanyl]-4-oxo-1-[2-(propan-2-yloxy)ethyl]-1H,4H,5H-pyrrolo[3,2-d]pyrimidin-5-yl}methyl N-butyl-N-methylcarbamate]",Caco-2 Papp,[1],28.7 ×10⁻⁶ cm/s
same,SGF,[2]; [9],98% @ 1 h
same,SIF,[3]; [10],96% @ 1 h
same,human Plasma stability,[4]; [11],96% @ 1 h
"trifluoroacetic acid {4-oxo-1-[2-(propan-2-yloxy)ethyl]-2-sulfanylidene-1H,2H,3H,4H,5H-pyrrolo[3,2-d]pyrimidin-5-yl}methyl N-[2-(2-aminoethoxy)ethyl]carbamate [Example 373]",Caco-2 Papp,[1],0.123 ×10⁻⁶ cm/s
same,SGF,[2]; [12],90% remaining
same,SIF,[3]; [13],72% remaining
same,human Plasma stability,"[4]; human plasma, remaining at 1 h",68% remaining
"trifluoroacetic acid {4-oxo-1-[2-(propan-2-yloxy)ethyl]-2-sulfanylidene-1H,2H,3H,4H,5H-pyrrolo[3,2-d]pyrimidin-5-yl}methyl (2R)-1-[2-(2-aminoacetamido)acetyl]pyrrolidine-2-carboxylate [Example 406]",Caco-2 Papp,[1],3.42 ×10⁻⁶ cm/s
same,SGF,[2]; [6],88% remaining
same,SIF,[3]; [7],71% remaining
same,human Plasma stability,[4]; [8],0% remaining
"CCCCCCCCOC(=O)OCSc1nc(=O)c2c(ccn2COC(=O)OCCCCCCCC)n1CCOC(C)C [Example 207, octyl {2-[{{[(octyloxy)carbon-yl]oxy}methyl)sulfanyl]-4-oxo-1-[2-(propan-2-yloxy)ethyl]-1H,4H,5H-pyrrolo[3,2-d]pyrimidin-5-yl} methyl carbonate]",Caco-2 Papp,[1]; the 15th table,0.267 ×10⁻⁶ cm/s
same,SGF,[2]; [14],90
same,SIF,[3]; [14],29
same,human Plasma stability,[4]; [15],92% remaining
"{4-oxo-1-[2-(propan-2-yloxy)ethyl]-2-sulfanylidene-1H,2H,3H,4H,5H-pyrrolo[3,2-d]pyrimidin-5-yl}methyl 2-[2-(2-{[(tert-butoxy)carbonyl]amino}acetamido)-N-methylacetamido]acetate [Example 407]",Caco-2 Papp,[1],14.6 ×10⁻⁶ cm/s
same,SGF,[2]; [6],98% remaining
same,SIF,[3]; [7],1% remaining
same,human Plasma stability,[4]; [8],0% remaining
"CC(C)OCCn1c(=S)[nH]c(=O)c2c1ccn2COC(=O)CCCCNC(=O)[C@@H]1CCCN1C(N)=O.O=C(O)C(F)(F)F [Example 69, trifluoroacetic acid {4-oxo-1-[2-(propan-2-yloxy)ethyl]-2-sulfanylidene-1H,2H,3H,4H,5H-pyrrolo[3,2-d]pyrimidin-5-yl}methyl 5-{[(2S)-1-carbamoylpyrrolidin-2-yl]formamido}pentanoate Caco-2 Papp]",Caco-2 Papp,[1],0.217 ×10⁻⁶ cm/s
same,SGF,[2]; [16],84% remaining
same,SIF,[3]; [17],94% remaining
same,human Plasma stability,[4]; [18],7% remaining
"CC(C)OCCn1c(=S)[nH]c(=O)c2c1ccn2COC(=O)CCCCNC(=O)[C@@H](N)CCc1ccccc1.O=C(O)C(F)(F)F [Example 24, trifluoroacetic acid {4-oxo-1-[2-(propan-2-yloxy)ethyl]-2-sulfanylidene-1H,2H,3H,4H,5H-pyrrolo [3,2-d]pyrimidin-5-yl} methyl 5-[(2S)-2-amino-4-phenylbutanamido]pentanoate]",Caco-2 Papp,[1],0.302 ×10⁻⁶ cm/s
same,SGF,[2]; [16],99% remaining
same,SIF,[3]; [17],76% remaining
same,human Plasma stability,[4]; [18],1% remaining
"CC(C)OCCn1c(SCOC(=O)N(C)CCOCCNC(=O)[C@H](N)C(C)C)nc(=O)c2[nH]ccc21.O=C(O)C(F)(F)F [Example 391, trifluoroacetic acid ({4-oxo-1-[2-(propan-2-yloxy)ethyl]-1H,4H,5H-pyrrolo[3,2-d]pyrimidin-2-yl}sulfanyl) methyl N-(2-{2-[(2R)-2-amino-3-methylbutanamido]ethoxy}ethyl)-N-methylcarbamate]",Caco-2 Papp,[1],3.65 ×10⁻⁶ cm/s
same,SGF,[2]; [12],96% remaining
same,SIF,[3]; [13],70% remaining
same,human Plasma stability,"[4]; human plasma, remaining at 1 h",1% remaining
"CC(C)OCCn1c(=S)n(COC(=O)CCCOC(=O)[C@H](NC(=O)OC(C)(C)C)C(C)C)c(=O)c2c1ccn2COC(=O)CCCOC(=O)[C@H](NC(=O)OC(C)(C)C)C(C)C [Example 359, (((1-(2-isopropoxyethyl)-4-oxo-2-thioxo-1,4-dihydro-3H-pyrrolo[3,2-d]pyrimidine-3,5(2H)-diyl)bis(methylene))bis(oxy))bis(4-oxobutane-4,1-diyl) (2R,2′R)-bis(2-((tert-butoxycarbonyl)amino)-3-methylbutanoate)]",Caco-2 Papp,[1],<0.297 ×10⁻⁶ cm/s
same,SGF,[2]; [12],99% remaining
same,SIF,[3]; [13],41% remaining
same,human Plasma stability,"[4]; human plasma, remaining at 1 h",8% remaining
"tert-butyl 3-(2-{[{{4-oxo-1-[2-(propan-2-yloxy)ethyl]-2-sulfanylidene-1H,2H,3H,4H,5H-pyrrolo[3,2-d]pyrimidin-5-yl}methoxy)carbonyl]oxy}eth-oxy)propanoate [Example 392]",Caco-2 Papp,[1],0.12 ×10⁻⁶ cm/s
same,SGF,[2]; [12],95% remaining
same,SIF,[3]; [13],71% remaining
same,human Plasma stability,"[4]; human plasma, remaining at 1 h",1% remaining
"CC(C)OCCn1c(=S)n(COC(=O)[C@H](C)N)c(=O)c2c1ccn2CO.O=C(O)C(F)(F)F [Example 290, trifluoroacetic acid [5-(hydroxymethyl)-4-oxo-1-[2-(propan-2-yloxy)ethyl]-2-sulfanylidene-1H,2H,3H,4H,5H-pyrrolo[3,2-d]pyrimidin-3-yl]methyl (2S)-2-aminopropanoate]",Caco-2 Papp (nm/s),[1],unstable
same,SGF,[2]; % remaining @ 1 h,98% @ 1 h
same,SIF,[3]; % remaining @ 1 h,10% @ 1 h
CC(C)OCCn1c(=S)[nH]c(=O)c2c1ccn2COC(=O)CCNC(=O)[C@@H](N)[C@@H](C)O.O=C(O)C(F)(F)F [Example 40],"Papp at 90 min, 10 µM",[5]; [19],< 0.235 ×10⁻⁶ cm/s
same,SGF,[2]; [16],100%
same,SIF,[3]; [17],86% remaining
same,human Plasma stability,[4]; [18],88% remaining
CC(C)CN(C)C(=O)OCSc1nc(=O)c2c(ccn2COC(=O)N(C)CC(C)C)n1CCOC(C)C [Example 161],"Papp at 90 min, 10 µM",[5]; [19],31.3 ×10⁻⁶ cm/s
same,SGF,[2]; [9],80% @ 1 h
same,SIF,[3]; [10],80% @ 1 h
same,human Plasma stability,[4]; [11],99% @ 1 h
"CSCC[C@H](NC(=O)OC(C)(C)C)C(=O)OCCCCC(=O)OCn1ccc2c1c(=O)[nH]c(=S)n2CCOC(C)C [Example 352, {4-oxo-1-[2-(propan-2-yloxy)ethyl]-2-sulfanylidene-1H,2H,3H,4H,5H-pyrrolo[3,2-d]pyrimidin-5-yl}methyl 5-{[(2S)-2-{[(tert-butoxy)carbonyl]amino}-4-(methylsulfanyl)butanoyl]oxy}pentanoate]","Papp at 90 min, 10 µM",[5]; [19],2.03 ×10⁻⁶ cm/s
same,SGF,[2]; [12],92% remaining
same,SIF,[3]; [13],9% remaining
same,human Plasma stability,"[4]; human plasma, remaining at 1 h",9% remaining
CCCNC(=O)OCSc1nc(=O)c2c(ccn2COC(=O)NCCC)n1CCOC(C)C [Example 183],"Papp at 90 min, 10 µM","[5]; Caco-2, pH 7.4, Caco-2 monolayer, the 15th table",4.59 ×10⁻⁶ cm/s
same,SGF,"[2]; % remaining at 1 h in simulated gastric fluid, the 15th table",94% @ 1 h
same,SIF,"[3]; % remaining at 1 h in simulated intestinal fluid, the 15th table",99% @ 1 h
same,human Plasma stability,[4]; [15],92% @ 1 h
CC(C)OCCn1c(=S)n(COC(=O)CNC(=O)OC(C)(C)C)c(=O)c2c1ccn2COC(=O)CNC(=O)OC(C)(C)C [Example 283],"Papp at 90 min, 10 µM",[5]; [19],5.78 ×10⁻⁶ cm/s
same,SGF,"[2]; simulated gastric fluid, @ 1 h",82% @ 1 h
same,SIF,"[3]; simulated intestinal fluid, @ 1 h",1% @ 1 h
same,human Plasma stability,"[4]; human plasma, @ 1 h",26% @ 1 h
"CC(C)OCCn1c(=S)[nH]c(=O)c2c1ccn2C(C)OC(=O)N(C)CC(=O)OC(C)(C)C (stereo not shown) [Example 113, tert-butyl 2-{methyl [(1-{4-oxo-1-[2-(propan-2-yloxy)ethyl]-2-sulfanylidene-1H, 2H,3H,4H,5H-pyrrolo[3,2-d]pyrimidin-5-yl}ethoxy)carbonyl]amino}acetate]","Papp at 90 min, 10 µM","[5]; Caco-2, pH 7.4, donor 10 μM, 90 minutes, 37° C., direction not given",7.86 ×10⁻⁶ cm/s
same,SGF,"[2]; % remaining at 1 h, SGF with pepsin pH 1.2, 2 μg/mL, 37° C.",44%
same,SIF,"[3]; % remaining at 1 h, SIF with pancreatin pH 6.8, 2 μg/mL, 37° C.",96%
same,human Plasma stability,"[4]; % remaining at 1 h, human plasma, 1 μM, 37° C.",99%
CC(C)COC(=O)n1ccc2c1c(=O)[nH]c(=S)n2CCOC(C)C [Example 232],"Papp at 90 min, 10 µM",[5]; [19],0.256 ×10⁻⁶ cm/s
same,SGF,"[2]; simulated gastric fluid, at 1 h",98% remaining
same,SIF,"[3]; simulated intestinal fluid, at 1 h",3% remaining
same,human Plasma stability,"[4]; human plasma, at 1 h",2% remaining
CC(C)OCCn1c(=S)[nH]c(=O)c2c1ccn2COC(=O)CCCCNC(=O)[C@@H](N)Cc1ccc(O)cc1.O=C(O)C(F)(F)F [Example 49],"Papp at 90 min, 10 µM",[5]; [19],0.154 ×10⁻⁶ cm/s
same,SGF,[2]; [16],99% remaining
same,SIF,[3]; [17],92% remaining
same,human Plasma stability,[4]; [18],1% remaining
